Source: US7528252B2, “Derivatives of triazoly-imidazopyridine useful as ligands of the adenosine A2a receptor and their use as medicaments” (Sigma-Tau Industrie Farmaceutiche Riunite S.p.A., priority 2002, dated 2009)

Assays:
[1] = molecular target: T1, human A2b receptor (Homo sapiens, UniProt P29275); assay: Affinity towards the adenosine A2b receptor ([3H]-DPCPX binding, HEK 293 membranes); conditions: read-out: A2b Ki (nM) ± sd
T1 construct: expressed in transfected cells; host or cells: HEK 293
T1 sequence (P29275 1-332): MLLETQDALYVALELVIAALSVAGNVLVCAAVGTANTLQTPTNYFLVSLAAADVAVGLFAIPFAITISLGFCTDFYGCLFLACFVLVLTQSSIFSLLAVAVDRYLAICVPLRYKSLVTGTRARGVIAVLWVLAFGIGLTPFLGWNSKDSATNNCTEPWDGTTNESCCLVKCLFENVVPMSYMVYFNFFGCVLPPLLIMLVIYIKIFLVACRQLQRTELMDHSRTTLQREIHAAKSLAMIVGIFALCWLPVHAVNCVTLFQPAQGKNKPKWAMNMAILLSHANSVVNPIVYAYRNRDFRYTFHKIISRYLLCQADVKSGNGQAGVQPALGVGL
Method: The interactive capacity of each product towards the adenosine A2b receptor was evaluated using membranes from HEK 293 cells stably expressing the human A2b receptor subtype exclusively.
Non-specific binding was measured in the presence of NECA (50 μM).
In binding studies for each compound, eight different concentrations (from 10^−5 M to 10^−12 M) were evaluated in order to obtain competition curves. By means of non-linear regression analysis of the competition curves, the IC50 values, which express the binding affinity of each product, were determined. Using the Cheng Prusoff equation (Ki=IC50/1+(L/Kd)) Ki values were calculated through which the affinity of each product studied, for the receptor investigated, is expressed.

[2] = molecular target: NMDA; assay: Receptor binding study, NMDA; conditions: reference compound
[3] = test system: CD1 male mice; assay: Effects on spontaneous motor activity in mice; format: in vivo; conditions: for Horizontal activity / Total distance / Vertical activity: mean ± s.e.
Method: For this study, type CD1 male mice (n=8) were used. The effects of the products under study and of the reference compounds were evaluated using an apparatus consisting of a Plexiglas cage (40 cm×40 cm) surrounded by a series of photocells which monitor the movements of the animals placed inside, connected a computerised system, through which, the signals are collected and later elaborated.
Tests were carried out, after endoperitoneal administration of the products. 15 minutes after treatment, the treated animals, alternating with the controls, were placed inside the cage so as to record their spontaneous movements over a total period of 45 minutes broken down into two observation intervals (15′-45′ and 45′-60′, with respect to the time after treatment).
To examine the possible effects of the compounds studied on motor activity, the following parameters were considered: horizontal activity, vertical activity: total distance.
Except for CGS 21680 (reference compound, described in EP 0 277 917, Ciba-Geigy) which was dissolved in 0.9% NaCl, the products studied were solubilised in DMSO and then diluted in Cremofor EL and 0.9% NaCl (final concentrations: DMSO 15%, Cremofor EL 15%, NaCl 0.9%.

[4] = molecular target: T2, M5 (Homo sapiens, UniProt P08912); assay: Receptor binding study, M5; conditions: reference compound
T2 sequence (P08912 1-532): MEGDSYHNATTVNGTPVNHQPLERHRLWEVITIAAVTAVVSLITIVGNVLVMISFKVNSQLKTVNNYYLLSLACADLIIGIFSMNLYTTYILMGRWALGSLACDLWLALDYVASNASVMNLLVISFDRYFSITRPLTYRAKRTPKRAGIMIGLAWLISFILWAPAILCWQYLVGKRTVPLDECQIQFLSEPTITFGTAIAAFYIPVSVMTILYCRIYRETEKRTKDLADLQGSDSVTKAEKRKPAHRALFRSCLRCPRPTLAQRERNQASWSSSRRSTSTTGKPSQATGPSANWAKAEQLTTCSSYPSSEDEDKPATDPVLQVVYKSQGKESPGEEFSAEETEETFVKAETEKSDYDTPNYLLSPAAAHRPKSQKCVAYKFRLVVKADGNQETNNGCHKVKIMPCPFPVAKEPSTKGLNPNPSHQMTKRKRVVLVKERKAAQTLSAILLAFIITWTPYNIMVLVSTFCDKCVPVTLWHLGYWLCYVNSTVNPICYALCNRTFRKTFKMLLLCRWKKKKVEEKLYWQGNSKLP

[5] = molecular target: T3, Cholinetransporter (Homo sapiens, UniProt Q9GZV3); assay: Receptor binding study, Choline transporter; conditions: reference compound
T3 sequence (Q9GZV3 1-580): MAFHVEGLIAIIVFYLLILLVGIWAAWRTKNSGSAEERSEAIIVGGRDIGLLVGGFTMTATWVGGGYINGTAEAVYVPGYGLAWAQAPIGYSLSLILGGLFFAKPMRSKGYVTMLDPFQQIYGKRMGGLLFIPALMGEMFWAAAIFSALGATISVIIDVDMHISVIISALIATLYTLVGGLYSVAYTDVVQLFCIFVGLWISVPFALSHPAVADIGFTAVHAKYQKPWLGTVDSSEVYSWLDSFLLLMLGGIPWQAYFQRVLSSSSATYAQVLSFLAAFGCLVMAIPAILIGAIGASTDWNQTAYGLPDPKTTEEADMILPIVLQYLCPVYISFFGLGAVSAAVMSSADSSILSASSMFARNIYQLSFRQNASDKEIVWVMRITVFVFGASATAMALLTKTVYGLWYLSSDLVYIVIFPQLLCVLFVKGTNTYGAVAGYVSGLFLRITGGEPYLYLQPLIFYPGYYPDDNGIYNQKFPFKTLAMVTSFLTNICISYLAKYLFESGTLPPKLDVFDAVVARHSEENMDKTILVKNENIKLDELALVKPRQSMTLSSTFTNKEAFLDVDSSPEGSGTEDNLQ

[6] = molecular target: PCP; assay: Receptor binding study, PCP; conditions: reference compound
[7] = molecular target: ADOtransporter; assay: Receptor binding study, ADO transporter; conditions: reference compound
[8] = molecular target: T4, human A1 subtype adenosine receptor (Homo sapiens, UniProt P30542); assay: Affinity towards the adenosine A1 receptor ([3H]-DPCPX binding, CHO-K1 membranes); conditions: read-out: A1 Ki (nM) ± sd
T4 construct: expressed in transfected cells; host or cells: CHO-K1
T4 sequence (P30542 1-326): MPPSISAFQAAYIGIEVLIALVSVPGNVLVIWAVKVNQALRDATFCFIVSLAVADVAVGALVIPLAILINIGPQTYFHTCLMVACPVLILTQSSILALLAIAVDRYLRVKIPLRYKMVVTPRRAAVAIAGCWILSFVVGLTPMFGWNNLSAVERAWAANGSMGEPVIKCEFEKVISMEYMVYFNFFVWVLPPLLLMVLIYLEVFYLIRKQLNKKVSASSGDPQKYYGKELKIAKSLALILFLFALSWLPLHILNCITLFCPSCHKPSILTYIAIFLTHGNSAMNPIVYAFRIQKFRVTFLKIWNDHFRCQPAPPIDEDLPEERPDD

[9] = molecular target: human A2a receptor (Homo sapiens, UniProt P29274); conditions: for KiA1/KiA2a: ratio of receptor affinity (selectivity); for Ki: read-out: A2a Ki (nM) ± sd, human A2a, HEK 293 membranes, [3H]-CGS21680
[10] = test system: CD1 male mice; assay: Capacity of the products to induce catalepsy in mice; format: in vivo; conditions: endoperitoneal, 30 minutes prior to the test
Method: 10 CD1 male mice were used per group. For this test, a steel bar, 10 cm long, was placed at a height of 4.5 cm above the support surface. Onto this, were placed the front legs of the animals. The presence of catalepsy was determined by measuring the time (in seconds) the animal remained in the posture placed. Later, this parameter was placed relatively, on a scale of rising values (0 to 5) through which, the degree of catalepsy determined in both control animals and in these subjected to treatment with the substances under test could be proportionately expressed.
The reference products and these in this study were administered endoperitoneally, in a volume of 10 ml/kg, 30 minutes prior to the test.
Except for CGS 21680 (reference compound) which was dissolved in 0.9% NaCl, the products in the study and the control antagonist ZM 241385 were solubilised in DMSO and then diluted in Cremofor EL and 0.9% NaCl (final concentrations: DMSO 15%, Cremofor EL 15%, NaCl 0.9%).

[11] = molecular target: P2Y; assay: Receptor binding study, P2Y; conditions: reference compound
[12] = test system: mice; assay: Forced swim test in mice; format: in vivo; conditions: 60 minutes before the test; 4 minutes of testing period
Method: Mice were dropped individually into glass cylinders (height: 25 cm, internal diameter 10 cm) containing 10 cm water, maintained at 23° C. The immobility time (sec) was measured during 4 minutes of test. A mouse was judged to be immobile when it remained floating in the water, making only the necessary movements to keep its head above water. Test compound ST 1535 was administered orally to mice, 60 minutes before the test.

[13] = molecular target: GABAa; assay: Receptor binding study, GABAa; conditions: reference compound
[14] = molecular target: P2X; assay: Receptor binding study, P2X; conditions: reference compound
[15] = 0.5 mg/kg endoperitoneal, interval 15′-45′ from treatment
[16] = 0.5 mg/kg endoperitoneal, interval 45′-60′ from treatment
[17] = 2.5 mg/kg endoperitoneal, interval 15′-45′ from treatment
[18] = 2.5 mg/kg endoperitoneal, interval 45′-60′ from treatment
[19] = 5 mg/kg endoperitoneal, interval 15′-45′ from treatment
[20] = 5 mg/kg endoperitoneal, interval 45′-60′ from treatment
[21] = 10 mg/kg endoperitoneal, interval 15′-45′ from treatment
[22] = 10 mg/kg endoperitoneal, interval 45′-60′ from treatment

human A2a receptor, sequence (P29274 whole entry): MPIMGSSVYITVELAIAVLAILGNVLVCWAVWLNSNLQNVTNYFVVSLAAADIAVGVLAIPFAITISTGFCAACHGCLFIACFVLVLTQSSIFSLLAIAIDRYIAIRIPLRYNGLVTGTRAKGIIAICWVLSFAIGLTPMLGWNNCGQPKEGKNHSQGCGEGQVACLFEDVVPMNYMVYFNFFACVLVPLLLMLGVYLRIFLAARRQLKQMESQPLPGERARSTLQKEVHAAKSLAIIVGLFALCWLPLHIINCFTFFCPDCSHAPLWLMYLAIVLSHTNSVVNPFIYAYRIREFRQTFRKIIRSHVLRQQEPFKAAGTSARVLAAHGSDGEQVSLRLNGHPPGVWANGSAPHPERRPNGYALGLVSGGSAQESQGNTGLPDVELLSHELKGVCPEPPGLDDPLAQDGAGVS

## O=c1nc2[nH]c3ccccc3nc-2c(=O)[nH]1 [Alloxazine, reference compound]
[1]
  Ki: 3.8 ± 2.1 nM

## O=C(O)[C@@H]1C[C@H](CP(=O)(O)O)CCN1 [CGS 19755, reference compound]
[2]
  IC50: 0.967 µM

## CCNC(=O)[C@H]1O[C@@H](n2cnc3c(N)nc(NCCc4ccc(CCC(=O)O)cc4)nc32)[C@H](O)[C@@H]1O [CGS 21680, reference compound]
[3]; [15]
  Horizontal activity: 1608 ± 328
  Total distance: 504 ± 106
  Vertical activity: 27 ± 11
[3]; [16]
  Horizontal activity: 471 ± 254
  Total distance: 121 ± 73
  Vertical activity: 10 ± 1

## C[N+]1(C)CCC(OC(=O)C(c2ccccc2)c2ccccc2)CC1 [Compound 4-DAMP, reference compound]
[4]
  IC50: 0.002 µM

## C[N+]1(C)CCOC(O)(c2ccc(-c3ccc(C4(O)C[N+](C)(C)CCO4)cc3)cc2)C1 (centres unmarked) [Hemicholinium-3, reference compound]
[5]
  IC50: 0.012 µM

## C[C@]12N[C@H](Cc3ccccc31)c1ccccc12 [MK-801, reference compound]
[6]
  IC50: 0.002 µM

## O=[N+]([O-])c1ccc(CSc2ncnc3c2ncn3[C@@H]2O[C@H](CO)[C@@H](O)[C@H]2O)cc1 [NBTI, reference compound]
[7]
  IC50: 0.0003 µM

## Cn1c(-n2nccn2)nc2c(N)ncnc21 [ST 1490, 6-amino-9-methyl-8-(triazol-2-yl)-9(H)-purine]
[8]
  Ki: 0.43 nM
[9]
  KiA1/KiA2a: 0.009
  Ki: 46 nM

## Cc1nc(N)c2nc(-n3nccn3)n(C)c2n1 [ST 1491, 6-amino-2,9-dimethyl-8-(triazol-2-yl)-9(H)-purine]
[8]
  Ki: 10 ± 1.4 nM
[9]
  KiA1/KiA2a: 0.15
  Ki: 70 ± 15 nM

## Cn1c(-n2nccn2)nc2c(N)nc(CCc3ccccc3)nc21 [ST 1537, 9-methyl-2-(2-phenylethyl)-8-(2H-1,2,3-triazol-2-yl)-9H-purine-6-ylamine]
[8]
  Ki: 80 ± 13 nM
[10]
  appearance of catalepsy in mice (FIG. 1): none of them brought about the appearance of catalepsy in mice
[3]; [17]
  Horizontal activity: 7494 ± 565
  Total distance: 1676 ± 204
  Vertical activity: 590 ± 78
[3]; [18]
  Horizontal activity: 3133 ± 250
  Total distance: 677 ± 105
  Vertical activity: 210 ± 17
[3]; [19]
  Horizontal activity: 7203 ± 264
  Total distance: 1503 ± 116
  Vertical activity: 498 ± 77
[3]; [20]
  Horizontal activity: 2844 ± 299
  Total distance: 532 ± 95
  Vertical activity: 363 ± 91
[3]; [21]
  Horizontal activity: 8242 ± 847
  Total distance: 2707 ± 950
  Vertical activity: 528 ± 126
[3]; [22]
  Horizontal activity: 3874 ± 295
  Total distance: 843 ± 149
  Vertical activity: 276 ± 57
[3]; independently of the dosage administered (2.5-10 mg/kg)
  effect on motor activity in mice (in words): induces a clear increase in motor activity
[1]
  Ki: 2330 ± 588 nM

## Nc1ncnc2c1ncn2[C@H]1C[C@H](O)[C@@H](COP(O)(=S)OP(=O)(O)OP(=O)(O)O)O1 (some centres unmarked) [dATPα S, reference compound]
[11]
  IC50: 0.022 µM

## CN(C)CCCN1c2ccccc2CCc2ccccc21 [imipramine, reference compound]
[12]
  time of immobility, forced swim test (FIG. 5): in a manner similar to that observed for the antidepressive drug Imipramine

## NCc1cc(=O)[nH]o1 [muscimol, reference compound]
[13]
  IC50: 0.016 µM

## Nc1ncnc2c1ncn2[C@@H]1O[C@H](COP(=O)(O)CP(=O)(O)OP(=O)(O)O)[C@@H](O)[C@H]1O [α,β-MeATP, reference compound]
[14]
  IC50: 0.014 µM
